One experiment deals with FGFR1 (Homo sapiens (Human), UniProt P11362). As to the kind of experiment: Kinase assay Method 1, mobility shift assay.
The next experiment concerns NCI-H1581 cells. In words: Cell proliferation assay on NCI-H1581 (Table 7). It is filed as cell-based, human. The source says:
Test method: adding the appropriate volume of whole medium and the cells was suspended.

The target of the next experiment is FGFR4 (Homo sapiens (Human), UniProt P22455). In words: Kinase assay Method 1, mobility shift assay. It is filed as biochemical. The note with it: ATP at Km, numeric values, read-out: IC50(nM) value of compounds FGFR4.
FGFR4, sequence (P22455 22-802): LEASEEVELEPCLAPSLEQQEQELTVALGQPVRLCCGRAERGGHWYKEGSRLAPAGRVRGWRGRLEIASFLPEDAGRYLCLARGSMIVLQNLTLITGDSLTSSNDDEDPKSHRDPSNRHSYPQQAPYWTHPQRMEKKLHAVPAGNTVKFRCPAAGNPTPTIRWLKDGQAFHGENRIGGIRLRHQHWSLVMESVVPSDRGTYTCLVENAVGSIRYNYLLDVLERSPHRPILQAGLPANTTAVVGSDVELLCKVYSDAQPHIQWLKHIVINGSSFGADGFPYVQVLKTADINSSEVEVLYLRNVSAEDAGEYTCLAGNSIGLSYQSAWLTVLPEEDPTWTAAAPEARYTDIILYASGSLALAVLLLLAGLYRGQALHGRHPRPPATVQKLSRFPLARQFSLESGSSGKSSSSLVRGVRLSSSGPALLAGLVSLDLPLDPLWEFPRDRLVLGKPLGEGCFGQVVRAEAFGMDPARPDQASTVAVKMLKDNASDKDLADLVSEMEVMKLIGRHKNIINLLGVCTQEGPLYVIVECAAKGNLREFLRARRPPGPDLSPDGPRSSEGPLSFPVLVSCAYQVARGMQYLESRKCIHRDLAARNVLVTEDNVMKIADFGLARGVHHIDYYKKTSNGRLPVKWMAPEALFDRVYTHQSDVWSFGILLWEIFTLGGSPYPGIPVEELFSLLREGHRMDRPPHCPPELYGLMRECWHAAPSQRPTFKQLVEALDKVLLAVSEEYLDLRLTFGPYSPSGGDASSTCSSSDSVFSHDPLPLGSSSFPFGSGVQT
Where [1] appears, read: read-out: IC50(nM) value of compounds FGFR1, mobility shift assay, ATP at Km, class symbols.
Where [2] appears, read: Homo sapiens, NCI-H1581, CellTiter 96 AQueous (144 hrs) or CellTiter Glo (96 hrs), class symbols, read-out: IC50(nM) value of compounds on NCI-H1581 cells.
Setting [3] is: Homo sapiens, NCI-H1581, read-out: IC50(nM) value of compounds on NCI-H1581 cells.

The structures appear in SMILES notation. Like-named read-outs stand apart in the source and are kept apart here. A value given as a limit tells only on which side of the number the result lay.

A word on the IC50: it is the concentration that inhibits the measured activity by half.

FGFR1, sequence (P11362 22-822): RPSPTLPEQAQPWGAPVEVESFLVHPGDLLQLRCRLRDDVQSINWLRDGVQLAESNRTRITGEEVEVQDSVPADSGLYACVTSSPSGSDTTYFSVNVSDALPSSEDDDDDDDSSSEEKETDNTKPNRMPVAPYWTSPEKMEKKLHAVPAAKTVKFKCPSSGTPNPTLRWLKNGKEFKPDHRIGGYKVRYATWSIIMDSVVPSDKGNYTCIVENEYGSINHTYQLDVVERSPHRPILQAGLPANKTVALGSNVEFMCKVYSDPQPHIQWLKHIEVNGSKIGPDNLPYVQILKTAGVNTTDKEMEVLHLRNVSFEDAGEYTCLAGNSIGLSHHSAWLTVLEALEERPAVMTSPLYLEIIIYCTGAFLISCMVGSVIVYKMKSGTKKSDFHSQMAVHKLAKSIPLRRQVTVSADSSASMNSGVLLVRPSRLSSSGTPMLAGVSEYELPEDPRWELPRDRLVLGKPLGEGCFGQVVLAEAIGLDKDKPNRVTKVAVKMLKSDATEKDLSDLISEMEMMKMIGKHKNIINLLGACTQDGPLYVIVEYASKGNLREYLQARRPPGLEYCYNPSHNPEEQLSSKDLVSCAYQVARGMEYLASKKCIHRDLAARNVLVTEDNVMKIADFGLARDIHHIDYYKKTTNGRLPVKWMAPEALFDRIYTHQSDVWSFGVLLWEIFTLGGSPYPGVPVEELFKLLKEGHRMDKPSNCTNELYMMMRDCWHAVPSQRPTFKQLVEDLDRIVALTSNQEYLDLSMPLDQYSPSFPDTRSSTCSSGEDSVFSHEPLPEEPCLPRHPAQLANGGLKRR
Protocol for FGFR1: Method 1: The inhibitory activity of some compounds of the present disclosure against FGFR1, FGFR2, FGFR3, FGFR4, KDR was tested by mobility shift assay (concentration of ATP is Km value).
Preparing of compounds: dilute test compounds to specific concentration using 100% DMSO

As to `CCN1CCN(Cc2ccc(Nc3ncc4cc(-c5cc(OC)cc(OC)c5Cl)c5nncn5c4n3)nc2)CC1` [Compound 17, 6-(2-chloro-3,5-dimethoxyphenyl)-N-(5-((4-ethylpiperazin-1-yl)methyl)pyridin-2-yl)-[1,2,4]triazolo[4′,3′:1,6]pyrido[2,3-d]pyrimidin-2-amine], the IC50 is over 10 nM at FGFR1 (setting [1]) and 10 to 100 nM in the experiment with NCI-H1581 cells (setting [2]).

Turning to `COc1cc(OC)c(Cl)c(-c2cc3cnc(Nc4ccc(N(C)CCN(C)C)cc4)nc3n3cnnc23)c1` [Compound 21], the IC50 at FGFR1 (setting [1]) was under 1 nM; in the experiment on NCI-H1581 cells (CellTiter 96 AQueous (144 hrs) or CellTiter Glo (96 hrs), class symbols, read-out: IC50(nM) value of compounds on NCI-H1581 cells) it was 1 to 10 nM.

In the case of `COc1cc(OC)c(Cl)c(-c2cc3cnc(Nc4ccc(N5CC6CCC(C5)N6C)cc4)nc3n3cnnc23)c1` [Compound 23, 6-(2-chloro-3,5-dimethoxyphenyl)-N-(4-(8-methyl-3,8-diazabicyclo[3.2.1]octan-3-yl)phenyl)-[1,2,4]triazolo[4′,3′:1,6]pyrido[2,3-d]pyrimidin-2-amine], the IC50 at FGFR1 and in the experiment on NCI-H1581 cells (setting [2]) was under 1 nM each time.

Regarding `COc1cc(OC)c(Cl)c(-c2cc3cnc(Nc4ccc(N5CCN(C)C(C)(C)C5)cc4)nc3n3cnnc23)c1` [Compound 26, 6-(2-chloro-3,5-dimethoxyphenyl)-N-(4-(3,3,4-trimethylpiperazin-1-yl)phenyl)-[1,2,4]triazolo[4′,3′:1,6]pyrido[2,3-d]pyrimidin-2-amine], the IC50 on FGFR1 (setting [1]) and with NCI-H1581 cells (setting [2]) was under 1 nM in each case.

Regarding `COc1cc(OC)c(Cl)c(-c2cc3cnc(Nc4ccc(N5CCN(CCO)CC5)cc4)nc3n3cnnc23)c1` [Compound 32, 2-(4-(4-((6-(2-chloro-3,5-dimethoxyphenyl)-[1,2,4]triazolo[4′,3′:1,6]pyrido[2,3-d]pyrimidin-2-yl)amino)phenyl)piperazin-1-yl)ethan-1-ol], the half-maximal inhibitory concentration (IC50) on FGFR1 (setting [1]) is under 1 nM; in the experiment with NCI-H1581 cells (setting [2]), 1 to 10 nM.

Consider `COc1cc(OC)c(Cl)c(-c2cc3cnc(Nc4ccc(CN5CCN(C)CC5)cc4)nc3n3cnnc23)c1` [Compound 46, 6-(2-chloro-3,5-dimethoxyphenyl)-N-(4-((4-methylpiperazin-1-yl)methyl)phenyl)-[1,2,4]triazolo[4′,3′:1,6]pyrido[2,3-d]pyrimidin-2-amine], for which the IC50 on FGFR4 was 56 nM; in the experiment with NCI-H1581 cells (setting [3]), 2.4 nM.

As to `COc1cc(OC)c(Cl)c(-c2cc3cnc(Nc4ccc(N5CC6CCC(C5)N6)cc4)nc3n3cnnc23)c1` [Compound 51, N-(4-(3,8-diazabicyclo[3.2.1]octan-3-yl)phenyl)-6-(2-chloro-3,5-dimethoxyphenyl)[1,2,4]triazolo[4′,3′:1,6]pyrido[2,3-d]pyrimidin-2-amine], the values for the IC50 on FGFR4 and in the experiment on NCI-H1581 cells (setting [3]) were 42 nM and 1.4 nM, respectively.

For the compound `COc1cc(OC)c(Cl)c(-c2cc3cnc(Nc4ccc(C5CCNCC5)c(C)c4)nc3n3cnnc23)c1` [Compound 52, 6-(2-chloro-3,5-dimethoxyphenyl)-N-(3-methyl-4-(piperidin-4-yl)phenyl)-[1,2,4]triazolo[4′,3′:1,6]pyrido[2,3-d]pyrimidin-2-amine], the IC50 at FGFR1 (setting [1]) and with NCI-H1581 cells (setting [2]) was under 1 nM in each case.

As to `COc1cc(OC)c(Cl)c(-c2cc3cnc(Nc4ccc5c(c4)CCNC5)nc3n3cnnc23)c1` [Compound 53, 6-(2-chloro-3,5-dimethoxyphenyl)-N-(1,2,3,4-tetrahydroisoquinolin-6-yl)-[1,2,4]triazolo[4′,3′:1,6]pyrido[2,3-d]pyrimidin-2-amine], the IC50 on FGFR4 was found to be 14 nM; in the experiment on NCI-H1581 cells (setting [3]), 0.7 nM.

`COc1cc(OC)c(Cl)c(-c2cc3cnc(Nc4ccc(N5C[C@@H](C)N[C@@H](C)C5)c(F)c4)nc3n3cnnc23)c1` [Compound 56, 6-(2-chloro-3,5-dimethoxyphenyl)-N-(4-((3S,5R)-3,5-dimethylpiperazin-1-yl)-3-fluorophenyl)-[1,2,4]triazolo[4′,3′:1,6]pyrido[2,3-d]pyrimidin-2-amine]: the IC50 on FGFR4 worked out at 51 nM; in the experiment with NCI-H1581 cells (setting [3]), 1.2 nM.

`CCN1CCN(c2ccc(Nc3ncc4cc(-c5c(Cl)c(OC)cc(OC)c5Cl)c5nncn5c4n3)cc2)CC1` [Compound 61, 6-(2,6-dichloro-3,5-dimethoxyphenyl)-N-(4-(4-ethylpiperazin-1-yl)phenyl)-[1,2,4]triazolo[4′,3′:1,6]pyrido[2,3-d]pyrimidin-2-amine]: the IC50 on FGFR1 (setting [1]) and in the experiment on NCI-H1581 cells (setting [2]) was under 1 nM each time.

Take `C=CC(=O)Nc1ccc(Cc2nnc3c(-c4cc(OC)cc(OC)c4Cl)cc4cnc(NCCN5CCOCC5)nc4n23)cc1` [Compound 86, N-(4-((6-(2-chloro-3,5-dimethoxyphenyl)-2-((2-morpholinoethyl)amino)-[1,2,4]triazolo[4′,3′:1,6]pyrido[2,3-d]pyrimidin-9-yl)methyl)phenyl)acrylamide]: the IC50 at FGFR1 (setting [1]) was over 10 nM; with NCI-H1581 cells (setting [2]), 1 to 10 nM.

Take `CCC(=O)Nc1ccc(Cc2nnc3c(-c4cc(OC)cc(OC)c4Cl)cc4cnc(NCCN5CCOCC5)nc4n23)cc1` [Compound 96, N-(4-((6-(2-chloro-3,5-dimethoxyphenyl)-2-((2-morpholinoethyl)amino)-[1,2,4]triazolo[4′,3′:1,6]pyrido[2,3-d]pyrimidin-9-yl)methyl)phenyl)propionamide]: the IC50 at FGFR1 (setting [1]) and in the experiment with NCI-H1581 cells (setting [2]) was over 100 nM in each case.

With `CC[N+]1([O-])CCN(c2ccc(Nc3ncc4cc(-c5cc(OC)cc(OC)c5Cl)c5nncn5c4n3)cc2)CC1` [Compound 99, 4-(4-((6-(2-chloro-3,5-dimethoxyphenyl)-[1,2,4]triazolo[4′,3′:1,6]pyrido[2,3-d]pyrimidin-2-yl)amino)phenyl)-1-ethylpiperazine 1-oxide], the IC50 is over 10 nM on FGFR1 (setting [1]) and 1 to 10 nM in the experiment with NCI-H1581 cells (setting [2]).

In the case of `COc1cc(OC)c(Cl)c(-c2cc3cnc(Nc4ccc(N5CC[N+]6(O)CCC[C@@H]6C5)cc4)nc3n3cnnc23)c1` (stereo partly drawn) [Compound 100, (8aR)-2-(4-((6-(2-chloro-3,5-dimethoxyphenyl)-[1,2,4]triazolo[4′,3′:1,6]pyrido[2,3-d]pyrimidin-2-yl)amino)phenyl)octahydro-5H-pyrrolo[1,2-a]pyrazine 5-oxide], the IC50 on FGFR1 (setting [1]) is under 1 nM; with NCI-H1581 cells (setting [2]) it was 10 to 100 nM.

Regarding `COc1cc(OC)c(Cl)c(-c2cc3cnc(Nc4ccc(N5CCN(C6CCCC6)CC5)cc4)nc3n3cnnc23)c1` [Compound 104, 6-(2-chloro-3,5-dimethoxyphenyl)-N-(4-(4-cyclopentylpiperazin-1-yl)phenyl)-[1,2,4]triazolo[4′,3′:1,6]pyrido[2,3-d]pyrimidin-2-amine], the IC50 on FGFR1 (setting [1]) was under 1 nM; in the experiment with NCI-H1581 cells (setting [2]) it was 1 to 10 nM.

Take `COc1cc(OC)c(Cl)c(-c2cc3cnc(Nc4ccc(N5CCN(C(C)=O)CC5)cc4)nc3n3cnnc23)c1` [Compound 106, 6-(2-chloro-3,5-dimethoxyphenyl)-N-(4-(4-acetylpiperazine-1-yl)phenyl)-[1,2,4]triazolo[4′,3′:1,6]pyrido[2,3-d]pyrimidin-2-amine]: the IC50 is under 1 nM on FGFR1 (setting [1]) and 1 to 10 nM in the experiment on NCI-H1581 cells (setting [2]).

As to `COc1cc(OC)c(Cl)c(-c2cc3cnc(Nc4ccc(N5CCN(C(=O)N(C)C)CC5)cc4)nc3n3cnnc23)c1` [Compound 107, 4-(4-((6-(2-chloro-3,5-dimethoxyphenyl)-[1,2,4]triazolo[4′,3′:1,6]pyrido[2,3-d]pyrimidin-2-yl)amino)phenyl)-N,N-dimethylpiperazine-1-carboxamide], the IC50 is under 1 nM at FGFR1 (setting [1]) and 1 to 10 nM with NCI-H1581 cells (setting [2]).

With `COc1cc(OC)c(Cl)c(-c2cc3cnc(Nc4ccc(N5CC6(CN(C(=O)N(C)C)C6)C5)cc4)nc3n3cnnc23)c1` [Compound 108, 6-(4-((6-(2-chloro-3,5-dimethoxyphenyl)-[1,2,4]triazolo[4′,3′:1,6]pyrido[2,3-d]pyrimidin-2-yl)amino)phenyl)-N,N-dimethyl-2,6-diazaspiro[3.3]heptane-2-carboxamide], the IC50 at FGFR1 (setting [1]) was over 10 nM; in the experiment with NCI-H1581 cells (setting [2]), 10 to 100 nM.

Turning to `C=CC(=O)Nc1ccc(Cc2nc3c(-c4cc(OC)cc(OC)c4Cl)cc4cnc(NCCN5CCOCC5)nc4n3n2)cc1` [Compound 112, N-(4-((4-(2-chloro-3,5-dimethoxyphenyl)-8-((2-morpholinoethyl)amino)-[1,2,4]triazolo[1′,5′:1,6]pyrido[2,3-d]pyrimidin-2-yl)methyl)phenyl)acrylamide], the IC50 at FGFR1 (setting [1]) was over 100 nM; with NCI-H1581 cells (setting [2]), 10 to 100 nM.

Take `C=CC(=O)N1CCN(CCCc2nnc3c(-c4cc(OC)cc(OC)c4Cl)cc4cnc(NC)nc4n23)CC1` [Compound 113, 1-(4-((6-(2-chloro-3,5-dimethoxyphenyl)-2-(methylamino)-[1,2,4]triazolo[4′,3′:1,6]pyrido[2,3-d]pyrimidin-9-yl)propyl)piperazin-1-yl)prop-2-en-1-one]: the figures for the IC50 on FGFR1 (setting [1]) and in the experiment with NCI-H1581 cells (setting [2]) were over 10 nM and 10 to 100 nM, respectively.

Turning to `C=CC(=O)N1CCN(CCc2nnc3c(-c4cc(OC)cc(OC)c4Cl)cc4cnc(NC)nc4n23)CC1` [Compound 114, 1-(4-(2-(6-(2-chloro-3,5-dimethoxyphenyl)-2-(methylamino)-[1,2,4]triazolo[4′,3′:1,6]pyrido[2,3-d]pyrimidin-9-yl)ethyl)piperazin-1-yl)prop-2-en-1-one], the IC50 at FGFR1 (setting [1]) and with NCI-H1581 cells (setting [2]) was over 100 nM each time.

As for `C=CC(=O)N1CCN(CCCc2nc3c(-c4cc(OC)cc(OC)c4Cl)cc4cnc(NC)nc4n3n2)CC1` [Compound 115, 1-(4-(3-(4-(2-chloro-3,5-dimethoxyphenyl)-8-(methylamino)-[1,2,4]triazolo[1′,5′:1,6]pyrido[2,3-d]pyrimidin-2-yl)propyl)piperazin-1-yl)prop-2-en-1-one], the IC50 on FGFR4 came out at 6.8 nM.
